The text below walks through data of patent US7524885B2, “Compounds that stimulate glucose utilization and methods of use” (The Governors of the University of Alberta, priority 2002, dated 2009).

One experiment relates to isolated working rat heart. Description: Glucose oxidation in isolated perfused working rat heart ([U-14C]glucose, 14CO2 production). The note with it: Table 2A; screening concentration 100 μM; isolated working rat heart; read-out: Glucose Oxidation (% above control). As for the experimental part: Rat hearts were cannulated for isolated working heart 60 minute aerobic perfusions as described in J Pharmacol Exp Ther. 1993; 264:135-144, the entire disclosure of which is incorporated herein by reference.
Male Sprague-Dawley rats (0.3-0.35 kg) were anesthetized with pentobarbital sodium (60 mg/kg IP) and hearts were quickly excised, the aorta was cannulated and a retrograde perfusion at 37° C. was initiated at a hydrostatic pressure of 60 mm Hg. Hearts were trimmed of excess tissue, and the pulmonary artery and the opening to the left atrium were then cannulated. After 15 min of Langendorff perfusion, hearts were switched to the working mode by clamping the aortic inflow line from the Langendorff reservoir and opening the left atrial inflow line. The perfusate was delivered from an oxygenator into the left atrium at a constant preload pressure of 11 mm Hg. Perfusate was ejected from spontaneously beating hearts into a compliance chamber (containing 1 ml of air) and into the aortic outflow line. The afterload was set at a hydrostatic pressure of 80 mm Hg. All working hearts were perfused with Krebs'-Henseleit solution containing calcium 2.5 mmol/L, glucose 5.5 mmol/L, 3% bovine serum albumin (fatty acid free, initial fractionation by heat shock, Sigma), and with 1.2 mmol/L palmitate. Palmitate was bound to the albumin as described in J Bio Chem. 1992; 267:3825-3831, the entire disclosure of which is incorporated herein by reference.
The perfusate was recirculated, and pH was adjusted to 7.4 by bubbling with a mixture containing 95% O2 and 5% CO2.
Spontaneously beating hearts were used in all perfusions. Heart rate and aortic pressure were measured with a Biopac Systems Inc. blood pressure transducer connected to the aortic outflow line. Cardiac output and aortic flow were measured with Transonic T206 ultrasonic flow probes in the preload and afterload lines, respectively. Coronary flow was calculated as the difference between cardiac output and aortic flow. Cardiac work was calculated as the product of systolic pressure and cardiac output.
Measurement of Glucose Oxidation: Glucose oxidation was measured simultaneously by perfusing hearts with [U-^14C] glucose according to the procedures discussed in Saddik M, et al., J Bio Chem. 1992; 267:3825-3831. The entire disclosure of this reference is incorporated herein by reference. The total myocardial ^14CO2 production was determined at 10-min intervals from the 60-min aerobic period. Glucose oxidation rates were determined by quantitative measurement of ^14CO2 production as described in Barbour RL, et al., Biochemistry. 1984; […]. The entire disclosure of this reference is incorporated herein by reference. ^14CO2 production for the control group were compared with the ^14CO2 production for the group treated with cyclopropanecarboxylic acid, 2-[2-(2-methoxy-ethoxy)-ethoxy]-ethyl ester. Results are shown on FIG. 1 and TABLE 2A.
The procedure of Example A for was followed except that cyclobutanecarboxylic acid, 2-[2-(2-methoxy-ethoxy)-ethoxy]-ethyl ester in 1 μM, 10 μM, 100 μM and 1000 μM amounts was added to the buffer in place of the cyclopropanecarboxylic acid, 2-[2-(2-methoxy-ethoxy)-ethoxy]-ethyl ester. The results are illustrated in FIG. 2 and TABLE 2A.
The procedure of Example A was followed except that cyclopropanecarboxylic acid, 2-isopropoxy-ethyl ester in 1 μM, 10 μM, 100 μM and 1000 μM amounts was added to the buffer in place of the cyclopropanecarboxylic acid, 2-[2-(2-methoxy-ethoxy)-ethoxy]-ethyl ester. The results are illustrated in FIG. 3 and TABLE 2A.
The procedure of Example A was followed except that various cyclobutanecarboxylic acid derivatives, cyclopropanecarboxylic acid derivatives and cyclobutanecarboxylic acid in the amounts of 100 μM or 1000 μM was added to the buffer in place of the cyclopropanecarboxylic acid, 2-[2-(2-methoxy-ethoxy)-ethoxy]-ethyl ester.
Consider `CCCCCCOCCOCCOC(=O)C1CC1` [Compound 11MM064, Cyclopropanecarboxylic acid 2-(2-hexyloxy-ethoxy)-ethyl ester], for which the activation at 100 µM was 83%. On the same count and under the same terms, in the case of `O=C(OCCN(CCOC(=O)C1CC1)CCN(CCOC(=O)C1CC1)CCOC(=O)C1CC1)C1CC1` [Compound 23MM076, Cyclopropanecarboxylic acid 2-[{2-[bis(2-cyclopropanecarbonyloxy-ethyl)-amino]-ethyl}-(2-cyclopropanecarbonyloxy-ethyl)-amino] ethyl ester] it was 274%; in that of `CN(C)CCOCCOC(=O)C1CC1` [Compound 9MM062, Cyclopropanecarboxylic acid 2-(2-dimethylamino-ethoxy)-ethyl ester], 77%; in that of `O=C(OCCOCCOCc1ccccc1)C1CC1` [Compound 4MM057, Cyclopropanecarboxylic acid 2-(2-benzyloxy-ethoxy)-ethyl ester], 104%. The same measure, in the same setting: in the case of `CCOCCOC(=O)C1CCC1` [Compound 16MM069, Cyclobutanecarboxylic acid 2-ethoxy-ethyl ester] it was 162%; in that of `COCCOCCOCCOC(=O)C1CCC1` [Compound 3MM056, Cyclobutanecarboxylic Acid, 2-[2-(2-methoxy-ethoxy)-ethoxy]-ethyl ester], 54%. With `O=C(OCCOCCOC(=O)C1CCC1)C1CCC1` [Compound 20MM073, Cyclobutanecarboxylic acid, 2-(2-cyclobutanecarbonyloxy-ethoxy)-ethyl ester], the activation at 100 µM came to 243%. Still for that read-out and setting: in the case of `CCCCOCCOCCOC(=O)C1CCC1` [Compound 7MM060, Cyclobutanecarboxylic acid, 2-(2-butoxy-ethoxy)-ethyl ester] it was 65%; in that of `CN(C)CCOCCOC(=O)C1CCC1` [Compound 10MM063, Cyclobutanecarboxylic acid 2-(2-dimethylamino-ethoxy)-ethyl ester], 41%; in that of `CCOCCOC(=O)C1CC1` [Compound 15MM068, Cyclopropanecarboxylic acid 2-ethoxy-ethyl ester], 416%. Regarding `O=C(OCCOCCOC(=O)C1CC1)C1CC1` [Compound 19MM072, Cyclopropanecarboxylic acid, 2-(2-cyclopropanecarbonyloxy-ethoxy)-ethyl ester], the activation at 100 µM stood at 97%. Turning to `COCCOCCOC(=O)C1CCC1` [Compound 14MM067, Cyclobutanecarboxylic acid 2-(2-methoxy-ethoxy)-ethyl ester], the activation at 100 µM came to 50%. Same read-out and setting: in the case of `CC(C)OCCNC(=O)C1CC1` [Compound 24MM077, Cyclopropanecarboxylic acid (2-isopropoxy-ethyl)-amide] it was 217%; in that of `O=C(OCCOCCOCCOC(=O)C1CCC1)C1CCC1` [Compound 22MM075, Cyclobutanecarboxylic Acid, 2-[2-(2-cyclobutanecarbonyloxy-ethoxy)-ethoxy]-ethyl ester], 184%; in that of `CC(C)OCCOC(=O)C1CCC1` [Compound 18MM071, Cyclobutanecarboxylic acid 2-isopropoxy-ethyl ester], 97%.

`CC(C)OCCOC(=O)C1CC1` [Compound 17MM070, Cyclopropanecarboxylic acid 2-isopropoxy-ethyl ester]: the activation at 100 µM came to 208%.

On to `COCCOCCOC(=O)C1CC1` [Compound 13MM066, Cyclopropanecarboxylic acid 2-(2-methoxy-ethoxy)-ethyl ester], for which the activation at 100 µM amounted to 20%.

Still in this experiment, the particulars now being: Table 2A; screening concentration 1000 μM; isolated working rat heart; read-out: Glucose Oxidation (% above control).
In the case of `CC(NC(=O)C1CC1)C(=O)O` (stereo not shown) [Compound 5MM058, 2-(Cyclopropanecarbonyl-amino)-propionic acid], the activation at 1000 µM was 40%. The same measure, in the same setting: in the case of `O=C(O)CNC(=O)C1CCC1` [Compound 2MM055, (Cyclobutanecarbonyl-amino)-acetic acid] it was 58%.

The same experiment, now with this note: Table 2B; screening concentration 100 μM; isolated working rat heart; read-out: Glucose Oxidation (% above control).
As to `CCOCCOC(=O)C1(C)CC1(Cl)Cl` (stereo not shown) [Compound 33MM086, 2,2-Dichloro-1-methyl-cyclopropanecarboxylic acid 2-ethoxy-ethyl ester], the activation at 100 µM amounted to 117%. The same measure, in the same setting: next, `CC(=O)NCCSC(=O)C1CC1` [Compound 38MM091, Cyclopropanecarbothioic acid S-(2-acetylamino-ethyl) ester]: 176%; `CCOCCOC(=O)C1(C(=O)OCCOCC)CC1` [Compound 31MM084, Cyclopropane-1,1-dicarboylic acid bis-(2-ethoxy-ethyl) ester]: 197%; `O=C(OCC1COc2ccccc2O1)C1CC1` (stereo not shown) [Compound 41MM094, Cyclopropanecarboxylic acid 2,3-dihydro-benzo(1,4)dioxin-2-ylmethyl ester]: 389%. Still for that read-out and setting: in the case of `CCOCCOC(=O)C1(c2ccc(OC)cc2)CC1` [Compound 43MM096, 1-(4-methoxy-phenyl)-cyclopropanecarboxylic acid 2-ethoxy-ethyl ester] it was 93%; in that of `CCOCCOC(=O)C1(c2ccccc2)CC1` [Compound 27MM080, 1-Phenyl-cyclopropanecarboxylic acid 2-ethoxy-ethyl ester], 148%; in that of `O=C(OCCOC(=O)C1CC1)C1CC1` [Compound 45MM098, Cyclopropanecarboxylic acid 2-cyclopropanecarbonyloxy-ethyl ester], 358%.

Take `COCCOC(=O)C1CC1` [Compound 30MM083, Cyclopropanecarboxylic acid, 2-Methoxy-ethyl ester]: the activation at 100 µM turned out to be 197%.

For `CCOCCOC(=O)C1C(C)(C)C1(C)C` [Compound 29MM082, 2,2,3,3-Tetramethyl-cyclopropanecarboxylic acid, 2-Ethoxy-ethyl ester], the activation at 100 µM stood at 110%. Same read-out and setting: in the case of `COCCOCCOCCOC(=O)C1(c2ccccc2)CC1` [Compound 44MM097, 1-phenyl-cyclopropanecarboxylic acid 2[2-(2-methoxy-ethoxy)-ethoxy]-ethyl ester] it was 125%. Still for that read-out and setting: in the case of `O=C(SCc1ccco1)C1CC1` [Compound 42MM095, Cyclopropanecarbothioic acid S-furan-2-yl methyl ester] it was 314%; in that of `COC(=O)CSC(=O)C1CC1` [Compound 37MM090, Cyclopropanecarbonylsulfanyl-acetic acid methyl ester], 251%; in that of `CCC1(COC(=O)C2CC2)COCOC1` [Compound 40MM093, Cyclopropanecarboxylic acid 5-ethyl-[1,3]-dioxan-5.ylmethyl ester], 260%. The same measure, in the same setting: in the case of `O=C(OCCN1CCOCC1)C1CC1` [Compound 39MM092, Cyclopropanecarboxylic acid 2-morpholin-4-yl-ethyl ester] it was 233%; in that of `O=C(OCCOC(=O)C1(c2ccccc2)CC1)C1(c2ccccc2)CC1` [Compound 46MM099, 1-(1-Phenyl-1-cyclopropanecarboxylic acid)-2-(1-phenyl-1-cyclopropanecarbonyloxy)-ethyl ester], 93%; in that of `Cc1ncsc1CCOC(=O)C1CC1` [Compound 36MM089, Cyclopropanecarboxylic acid 2-(4-methyl-thiazol-5-yl)-ethyl ester], 202%.

Still in this experiment, the particulars now being: intact heart.
As to `O=C(O)C1CCC1` [MM013, Cyclobutanecarboxylic acid], the “stimulation of glucose oxidation in the heart (in words)” value is on record as “stimulate glucose oxidation”. Still for that read-out and setting: next, `O=C(O)C1CC1` [MM001, Cyclopropanecarboxylic acid]: “stimulator of glucose oxidation”.
